For series [1] the following is noted: photon uncaging ability of the N-isomer; cited from earlier work.
Series [2] can be described thus: UV-vis absorption property. To be noted: for λmax: UV-vis spectrum; for λmax / Molar absorptivity ε at λmax: 35% aq methanol.
Protocol: We observed the absorption properties of the coumarin (DEACM), a common photocage present in 1 and 2, as shown in their UV-vis spectra (FIG. 2A).
Spectra for UV-vis Absorption Were Recorded With a Perkin Elmer Lamda 20 Spectrophotometer.
Series [3] is described as follows: Photolysis (photon uncaging) kinetics of photocaged thymidine monitored by UPLC. It is filed as physicochemical. Particulars: for Rate constant (first order) for the decay of photocaged thymidine (kdecay) / Quantum efficiency (Φ) of release for thymidine (dT) / Quantum efficiency (Φ) of release for thymidine-retaining byproduct(s): 35% (v/v) aq methanol; for Efficiency of thymidine release (max): maximal free thymidine released on photolysis; for Formation of thymidine-bearing byproduct dT^N-DEACM on photolysis: regardless of the light wavelength (365, 420, 455 nm). As to the method:
Photolysis of 1 was performed in an aqueous medium (0.21 mM in 35% (v/v) aq methanol), and its uncaging kinetics was determined by monitoring exposed solutions using UV-vis spectroscopy and UPLC (FIGS. 3A-3D). UV-vis spectra acquired after photolysis at 420 nm (exposure time = 0-20 min) show absorption changes in an exposure time-dependent manner (FIGS. 5A-5F), but these are not applicable for the detection and quantitation of thymidine released. In contrast, UPLC traces acquired after photolysis (FIG. 3A) show the disappearance of 1 with the concomitant growth of free thymidine (dT) (tr = 3.1 min) along with coumarin photocage detached 5 (tr = 6.5 min). The area under curve (AUC) analysis of these peaks provided a decay curve for 1 (FIG. 3B). Its regression analysis allowed determining a rate constant for first-order decay (kdecay = 1.5 ×10^-3 sec^-1), and quantum efficiency for thymidine release (ΦdT = 0.015) (Table 1).
We similarly evaluated the uncaging kinetics of 2 dT^O-Bn-DEACM (0.17 mM in 35% (v/v) aq methanol) by irradiation at 420 nm (FIGS. 3C-3D). Its photolysis led to smaller changes in UV-vis spectra with lack of a clear trend compared to 1 dT^O-DEACM (FIGS. 5A-5F). Overlaid UPLC traces show time-dependent, rapid uncaging of 2 with ~65% release of thymidine achieved after an initial exposure for 5 min. […] Regression analysis of its decay curve provided a decay constant (kdecay = 1.1×10^-3 sec^-1), which is slightly lower than that of 1 (Table 1). However, its lack of the byproduct formation makes a positive contribution to enhancing its quantum efficiency for thymidine release (ΦdT = 0.025) compared to 1 (ΦdT = 0.015). This clean uncaging kinetics offers evidence for greater advantages in thymidine uncaging by the extended spacer than the direct ether linkage.
UPLC was performed for homogeneity analysis and compound characterization in a Waters Acquity System combined with a photodiode array (PDA) detector. The UPLC analysis involved running a sample in a C4 BEH column (100 × 2.1 mm, 300 Å) at a flow rate of 0.2 mL min^-1. The elution occurred in a linear gradient composed of two mobile solvents, water and acetonitrile, each containing TFA (0.1% v/v) (eluent A and B respectively). Its method consisted of an initial phase 1% B (0-1.4 min), a linear increased to 80% B (1.4-13.4 min), a decrease to 50% B (13.4-13.8 min), a decrease to 1% B (13.8-14.4 min) and finally an isocratic elution at 1% B (14.4-18 min). This method was also applied for the kinetic analysis of product release.
Light Sources. Photolytic studies for thymidine release were performed with three light sources. These include: i) UV lamp (XX-15A, Spectroline®) for irradiation at long wavelength UV light (UVA) with a maximal intensity at 365 nm;^4 ii) LZC-420 lamp (Luzchem Research) for visible light at 420 nm; iii) LZC-LBL light emitting diode (LED) lamp (Luzchem Research) for visible (blue) light 445-465 nm. Photon flux density (qn,p = qp/NA, mol × s^-1) of each lamp was determined by ferrioxalate actinometry according to a standard protocol.^52, ^53 […]
Uncaging Kinetics and Analysis. Typically, a solution of photocaged thymidine 1 or 2 (dT^caged: 0.05-0.1 mg/mL) in aq methanol (30-35% v/v) was prepared and exposed to the light at a distance of ~5 cm. After each exposure period, the solution was aliquoted out as a function of irradiation time (0-30 min), and each aliquot was analyzed by UPLC and UV-vis absorption spectrometry to determine the kinetics of thymidine release and byproduct formation. Certain aliquot was further analyzed by HPLC-MS mass spectrometry (ESI) to validate the identity of thymidine and released molecular species in the photolysed solution.
Quantum efficiency (Φ) for the release of thymidine (dT) is defined in eq 1, and its value was calculated according to a standard method as noted in eq 2:^53 […]

Consider `CCN(CC)c1ccc2c(Cn3c(=O)c(C)cn(C4CC(O)C(CO)O4)c3=O)cc(=O)oc2c1` (stereo not shown) [dT^N-DEACM], for which the “Decay on irradiation relative to 1 dT^O-DEACM” value in series [1] is “approximately two orders of magnitude more slowly”.
As for `CCN(CC)c1ccc2c(COc3nc(=O)n([C@H]4C[C@H](O)[C@@H](CO)O4)cc3C)cc(=O)oc2c1` [Compound 1, dT^O-DEACM, reference compound], the λmax in series [2] is reported as 393 nm. The “Molar absorptivity ε at 455 nm” value in series [2] is 1,115 M^-1cm^-1. In series [2], the “Molar absorptivity ε at λmax” value is given as 10,209 M^-1cm^-1. Also, the “Rate constant (first order) for the decay of photocaged thymidine (kdecay)” value was 0.00089 s⁻¹ in series [3] (irradiation 365 nm (UVA)), 0.0015 s⁻¹ in series [3] (irradiation 420 nm (visible)) and 0.00012 s⁻¹ in series [3] (irradiation 455 nm (visible)). Besides, the entries for the “Quantum efficiency (Φ) of release for thymidine (dT)” value in series [3] (irradiation 365 nm), in series [3] (irradiation 420 nm) and in series [3] (irradiation 455 nm) were 0.006, 0.015 and 0.017, respectively. Moreover, the figures for the “Quantum efficiency (Φ) of release for thymidine-retaining byproduct(s)” value in series [3] (irradiation 365 nm), in series [3] (irradiation 420 nm) and in series [3] (irradiation 455 nm) were 0.005, 0.017 and 0.023, respectively. For the same compound, the “Efficiency of thymidine release (max)” value in series [3] came to 58%. Moreover, the “Formation of thymidine-bearing byproduct dT^N-DEACM on photolysis” value in series [3] is given as “induces a thymidine-bearing byproduct”.
For the compound dT^O-Bn-DEACM [Compound 2], in series [2], the λmax was found to be 390 nm. For the same compound, the “Molar absorptivity ε at 455 nm” value in series [2] is given as 1,653 M^-1cm^-1. Also, the “Molar absorptivity ε at λmax” value in series [2] is 11,603 M^-1cm^-1. Also, the “Rate constant (first order) for the decay of photocaged thymidine (kdecay)” value in series [3] (irradiation 365 nm (UVA)) stood at 0.0011 s⁻¹; in series [3] (irradiation 420 nm (visible)) it was 0.0011 s⁻¹; in series [3] (irradiation 455 nm (visible)), 0.00058 s⁻¹. Besides, the “Quantum efficiency (Φ) of release for thymidine (dT)” value in series [3] (irradiation 365 nm) stood at 0.014; in series [3] (irradiation 420 nm) it was 0.025; in series [3] (irradiation 455 nm) it was 0.081. For the same compound, the “Undesired species (tr = 7.8 min) in UPLC traces after photolysis” value in series [3] (irradiation 420 nm) is “have not observed the undesired species”. Also, the “Release of thymidine after initial exposure” value in series [3] (irradiation 420 nm, exposure 5 min) is reported as ~ 65%. Moreover, the “Faster decay than 1 at 455 nm” value in series [3] (irradiation 455 nm, relative to 1) is given as ~ 5 Fold. For the same compound, the “Efficiency of thymidine release (max)” value is 94% in series [3] and ~ 94% in series [3] (listed as new photocaged thymidine). Further, the “Photolysis rate at 455 nm lower than at 420 nm” value in series [3] (ratio of decay rates, 455 nm vs 420 nm) is on record as “approximately 2 Fold”. The “Formation of thymidine-bearing byproduct dT^N-DEACM on photolysis” value in series [3] is “lack of the byproduct formed”.

Values taken from patent US20230346943A1, “SPACER-MEDIATED CONTROL OF UNCAGING PHOTOCAGED MOLECULES” (The Regents of the University of California, priority 2020, published 2023).
